Data published in patent US6916915B1, “Stressor regulated genes” (Duke University, priority 1998, dated 2005).

Tested on: C. elegans
Assay: Reverse-Northern dot-blot analysis of steady-state mRNA levels after cadmium exposure
Type: in vivo, Caenorhabditis elegans
Details: for Fold-change in mRNA levels following cadmium exposure, DDRT1: clone DDRT1; for Fold-change in mRNA levels following cadmium exposure, DDRT2: clone DDRT2; for Fold-change in mRNA levels following cadmium exposure, DDRT3: clone DDRT3; for Fold-change in mRNA levels following cadmium exposure, DDRT4: clone DDRT4; for Fold-change in mRNA levels following cadmium exposure, DDRT5: clone DDRT5; for Fold-change in mRNA levels following cadmium exposure, DDRT6: clone DDRT6; for Fold-change in mRNA levels following cadmium exposure, DDRT7: clone DDRT7; for Fold-change in mRNA levels following cadmium exposure, DDRT9: clone DDRT9; for Fold-change in mRNA levels following cadmium exposure, DDRT10: clone DDRT10; for Fold-change in mRNA levels following cadmium exposure, DDRT12: clone DDRT12; for Fold-change in mRNA levels following cadmium exposure, DDRT15: clone DDRT15; for Fold-change in mRNA levels following cadmium exposure, DDRT16: clone DDRT16; for Fold-change in mRNA levels following cadmium exposure, DDRT17: clone DDRT17; for Fold-change in mRNA levels following cadmium exposure, DDRT18: clone DDRT18; for Fold-change in mRNA levels following cadmium exposure, DDRT19: clone DDRT19; for Fold-change in mRNA levels following cadmium exposure, DDRT20: clone DDRT20; for Fold-change in mRNA levels following cadmium exposure, DDRT21D: clone DDRT21D; for Fold-change in mRNA levels following cadmium exposure, DDRT21U: clone DDRT21U; for Fold-change in mRNA levels following cadmium exposure, DDRT22: clone DDRT22
Experimental: Growth and isolation of C. elegans—The N2 strain of C. elegans was grown in liquid S medium (0.1M NaCl, 50 mM potassium phosphate, pH 6.0, 5 μg/ml cholesterol, 10 mM potassium citrate, 3 mM CaCl2, 3 mM MgCl2, 50 μM EDTA, 25 μM FeSO4, 10 μM MnCl2, 10 μM ZnSO4 and 1 μM CuSO4) using E. coli OP50 as a food source (Brenner, S. (1974) Genetics 77, 71-94). In experiments where nematodes were exposed to cadmium, the medium was supplemented with 100 μM CdCl2 (Freedman, J. H. et al. (1993) J. Biol. Chem. 268, 2554-2564). C. elegans were grown in the presence of metal for 8 h or 24 h at ˜20° C. Nematodes were then collected following centrifugation at 800×g for 5 min. Pellets were suspended in 5 mM NaCl containing 35% sucrose (final concentration) and viable nematodes were collected from the top of the solution following centrifugation at 1000×g for 5 min at 4° C. Nematodes were then washed three times by suspension in M9 buffer (22 mM KH2PO4, 42 mM Na2HPO4, 85 mM NaCl, 1 mM MgSO4) followed by sedimentation at 800×g. Washed nematode pellets were finally suspended in a small volume of M9 buffer, rapidly frozen in liquid nitrogen and stored at −80° C.
RNA isolation—Total RNA was isolated from mix-stage populations of C. elegans exposed to 100 μM CdCl2 for 8 h and 24 h and control, non-exposed nematodes. Frozen worms were first ground into a fine powder using a liquid nitrogen-cooled mortar and pestle. Powdered C. elegans (200 mg) were then homogenized in 2 ml of TRIzol (GIBCO/BRL). RNA was then collected from the aqueous phase following the addition of chloroform, precipitated by adding isopropyl alcohol and then air-dried. The dried RNA pellet was then dissolved in diethyl pyrocarbonate (DEPC)-treated water. For some experiments, poly(A^+) RNA was subsequently isolated using the Poly(A) Tract System following manufacturer's instructions (Promega).
Reverse-Northern dot-blot analysis—Changes in the steady-state levels of differentially expressed mRNAs in C. elegans following cadmium-exposure were also determined by reverse-Northern dot-blot analysis by the modified procedure of Zhang et al. (Cummins, C. et al. (1988) Mol. Cell. Biol 8, 5334-5349). Briefly, differentially expressed cDNAs that were previously cloned into pGEM-T were amplified using primers that anneal to the T7 and SP6 RNA polymerase binding sites, which flank the cDNA insert. cDNAs were amplified and subsequently purified using a PCR-spin column (QIAGEN). Approximately 100 ng of each amplified cDNA were denatured by mixing with 0.1N NaOH (final concentration) and incubating at 100° C. for 5 min. The solution was neutralized following the addition of 3×SSC (final concentration) and then the volume adjusted to 700 μl with dH2O. 200-μl of each sample was applied to one of three Nytran membranes in a Bio-Dot microfiltration apparatus (BioRad). Membranes were then baked for 30 min at 80° C. under vacuum. As positive and loading controls 100 ng of mtl-1 cDNA and myosin light chain DNA were also applied to each membrane, respectively.
Three pools of single-stranded ^32P-labeled cDNA probes were prepared from poly(A^+) RNA isolated from control, 8 h and 24 h cadmium-treated nematodes. cDNAs were generated from a mixture of mRNAs in a 25 μl reverse transcriptase reactions which contained 2 μg poly(A^+) RNA, 1 μg oligo (dT)18 primer, reverse transcriptase buffer, 800 μM DATP, dGTP and dTTP, 4.5 μM dCTP, 100 μCi [α-^32P]dCTP (3000 Ci/mmol), 20 units RNase inhibitor and 200 units Moloney murine leukemia virus reverse transcriptase. The reaction mixture was incubated at 37° C. for 1 h, then at 95° C. for 5 min to terminate the reaction. Unincorporated nucleotides were separated from the labeled cDNAs by using a G-25 spin column (Boehringer Mannheim). Equal amounts (5×10^6 cpm/ml) of each radioactive cDNA mixture were heat-denatured and then hybridized separately to one of the three membranes at 42° C. for 16 h in hybridization buffer. […]

[1] = cadmium exposure, time not stated
[2] = 8 hours, 100 μM CdCl2, relative to non-exposed, normalized to myosin light chain mRNA
[3] = 24 hours, 100 μM CdCl2, relative to non-exposed, normalized to myosin light chain mRNA

[Cl][Cd][Cl] [cadmium, CdCl2]
increase in level of expression, forty-six of the clones (24-h exposure): up to 6 fold
level of expression of myosin light-chain mRNA (after cadmium treatment, loading control on dot blot): remained constant
induction of mtl-1 mRNA (after cadmium treatment, positive control on dot blot, time not stated): ~5 fold
increase in the level of mRNA DDRT30 (collagen col-36) [1]: 3 fold
increase in the level of mRNA DDRT33D (predicted cuticle collagen) [1]: 3 fold
Fold-change in mRNA levels following cadmium exposure, DDRT1 [2]: 2.2 fold
Fold-change in mRNA levels following cadmium exposure, DDRT1 [3]: 3.2 fold
Fold-change in mRNA levels following cadmium exposure, DDRT2 [2]: 3.1 fold
Fold-change in mRNA levels following cadmium exposure, DDRT2 [3]: 3.9 fold
Fold-change in mRNA levels following cadmium exposure, DDRT3 [2]: 2.0 fold
Fold-change in mRNA levels following cadmium exposure, DDRT3 [3]: 2.4 fold
Fold-change in mRNA levels following cadmium exposure, DDRT4 [2]: 2.5 fold
Fold-change in mRNA levels following cadmium exposure, DDRT4 [3]: 2.8 fold
Fold-change in mRNA levels following cadmium exposure, DDRT5 [2]: 3.2 fold
Fold-change in mRNA levels following cadmium exposure, DDRT5 [3]: 3.9 fold
Fold-change in mRNA levels following cadmium exposure, DDRT6 [2]: 4.7 fold
Fold-change in mRNA levels following cadmium exposure, DDRT6 [3]: 5.0 fold
Fold-change in mRNA levels following cadmium exposure, DDRT7 [2]: 3.6 fold
Fold-change in mRNA levels following cadmium exposure, DDRT7 [3]: 4.0 fold
Fold-change in mRNA levels following cadmium exposure, DDRT9 [2]: 3.5 fold
Fold-change in mRNA levels following cadmium exposure, DDRT9 [3]: 2.8 fold
Fold-change in mRNA levels following cadmium exposure, DDRT10 [2]: 2.7 fold
Fold-change in mRNA levels following cadmium exposure, DDRT10 [3]: 2.5 fold
Fold-change in mRNA levels following cadmium exposure, DDRT12 [2]: 3.0 fold
Fold-change in mRNA levels following cadmium exposure, DDRT12 [3]: 3.2 fold
Fold-change in mRNA levels following cadmium exposure, DDRT15 [2]: 2.8 fold
Fold-change in mRNA levels following cadmium exposure, DDRT15 [3]: 3.1 fold
Fold-change in mRNA levels following cadmium exposure, DDRT16 [2]: 4.3 fold
Fold-change in mRNA levels following cadmium exposure, DDRT16 [3]: 4.9 fold
Fold-change in mRNA levels following cadmium exposure, DDRT17 [2]: 3.7 fold
Fold-change in mRNA levels following cadmium exposure, DDRT17 [3]: 5.7 fold
Fold-change in mRNA levels following cadmium exposure, DDRT18 [2]: 2.2 fold
Fold-change in mRNA levels following cadmium exposure, DDRT18 [3]: 2.9 fold
Fold-change in mRNA levels following cadmium exposure, DDRT19 [2]: 2.7 fold
Fold-change in mRNA levels following cadmium exposure, DDRT19 [3]: 3.9 fold
Fold-change in mRNA levels following cadmium exposure, DDRT20 [2]: 2.6 fold
Fold-change in mRNA levels following cadmium exposure, DDRT20 [3]: 2.8 fold
Fold-change in mRNA levels following cadmium exposure, DDRT21D [2]: 2.2 fold
Fold-change in mRNA levels following cadmium exposure, DDRT21D [3]: 4.2 fold
Fold-change in mRNA levels following cadmium exposure, DDRT21U [2]: 2.2 fold
Fold-change in mRNA levels following cadmium exposure, DDRT21U [3]: 2.6 fold
Fold-change in mRNA levels following cadmium exposure, DDRT22 [2]: 2.5 fold
Fold-change in mRNA levels following cadmium exposure, DDRT22 [3]: 3.3 fold
Fold-change in mRNA levels following cadmium exposure, DDRT23 (clone DDRT23, 8 hours, 100 μM CdCl2, relative to non-exposed, normalized to myosin light chain mRNA): 3.3 fold
